From ChEMBL document CHEMBL3507680, “University of Dundee, Gates Library screen for HepG2 cell viability”

Test: Human HepG2 cell viability assay in 384 well format
Format: toxicity, cell-based
Set-up: dose 125 nL, time 70.5 hour; concentration not given beside the values
Conditions: HepG2 cells, read-out: Inhibition
CN(CC1(O)CCCN(c2ccccn2)C1)C(=O)Cc1ccsc1 (centres undefined) gave a cytotoxicity at 70.5 h of -9.68%. For Cc1nc(NC2CCCC2)cc(C2CCN2C(=O)c2ccccc2)n1 (centres undefined), the cytotoxicity at 70.5 h was 14.2%. Work on CN1CCCC1c1cccc(Cc2ccccc2F)n1 (centres undefined) yielded a cytotoxicity at 70.5 h of 0.232%. c1cncc(C2=NOC3(CCN(Cc4c[nH]c5ccccc45)CC3)C2)c1 gave a cytotoxicity at 70.5 h of 5.06%. In the case of c1ccc(C2=NOC3(CCN(Cc4c[nH]c5ccccc45)CC3)C2)cc1, the cytotoxicity at 70.5 h is reported as 11.1%. For CN1CC(=O)N(c2cccnc2)Cc2c(NC3CC3)ncnc21, the cytotoxicity at 70.5 h was -0.235%. In the case of CC(C)CN1CCCC(c2nc(O)c3cc(F)ccc3n2)C1 (centres undefined), the cytotoxicity at 70.5 h is reported as 1.3%. Cc1ccc2nc(C3CCCN(CC(C)C)C3)nc(O)c2c1 (centres undefined) showed a cytotoxicity at 70.5 h of -2.98%. In the case of CCN1CCCC(c2nc(O)c3cc(C)ccc3n2)C1 (centres undefined), the cytotoxicity at 70.5 h is reported as -8.23%. Compound O=C(c1ccc2c(c1)OCO2)N1CCC(C(=O)O)(c2ccccc2)CC1 has a cytotoxicity at 70.5 h of -11.1%. Compound CC(C)C1=NOC2(CCN(S(C)(=O)=O)CC2)C1 has a cytotoxicity at 70.5 h of -12.4%. With COc1ccccc1-c1cc(C(=O)N2CCCC2)c2cnn(C)c2n1 the cytotoxicity at 70.5 h was -5.55%. NCCC(=O)N1CCC2(CC1)CN(C(=O)c1ccc(Cl)cc1)CCO2 showed a cytotoxicity at 70.5 h of -12.1%. NCCC(=O)N1CCC2(CC1)CN(C(=O)Cc1ccc(Cl)cc1)CCO2 showed a cytotoxicity at 70.5 h of -14.3%. Compound CN(C)C(=O)C1CCc2nnc(C(C)(C)C)n21 (centres undefined) has a cytotoxicity at 70.5 h of -3.32%. CN(C)C(=O)c1cc(-c2ccc(S(C)(=O)=O)cc2)c2cnn(C)c2n1 showed a cytotoxicity at 70.5 h of -7.12%. Cc1cc(C(=O)NCc2ccc(F)cc2)c2c(C3CCNC3)noc2n1 (centres undefined) showed a cytotoxicity at 70.5 h of -7.85%. In the case of CC1(C(=O)NCc2cc(F)cc(F)c2)CCOCC1, the cytotoxicity at 70.5 h is reported as -6.71%. For O=C(NC1CC1)C1CCc2nnc(C3CC3)n21 (centres undefined), the cytotoxicity at 70.5 h was -10.1%. For O=C1CC2(CCN(C(=O)c3ccccn3)C2)Nc2ccccc2N1 (centres undefined), the cytotoxicity at 70.5 h was -14.7%. Compound c1c[nH]c2nc(C3CCNC3)nc-2c1 (centres undefined) has a cytotoxicity at 70.5 h of -17.5%. Compound COC(=O)CNC(=O)c1nc(-c2ccccc2OC)c2cnccn12 has a cytotoxicity at 70.5 h of -11.4%. Compound O=C1NC2(Cc3ccccc31)CN(CC1CCOCC1)C2 has a cytotoxicity at 70.5 h of 25.2%. In the case of Cn1nc(C2CCNCC2)c2c(C(=O)NC3CC3)cc(C3CC3)nc21, the cytotoxicity at 70.5 h is reported as 15%. With Cn1nc(C2CCNC2)c2c(C(=O)NC3CC3)cc(C3CC3)nc21 (centres undefined) the cytotoxicity at 70.5 h was 17.5%. With CC(=O)N1CC2(CCCN2Cc2ccc(Cl)cc2)Cc2ccccc21 (centres undefined) the cytotoxicity at 70.5 h was 31.4%. For CC(C)NC(=O)C1CCc2nnc(CNC(=O)c3ccc(Cl)cc3Cl)n21 (centres undefined), the cytotoxicity at 70.5 h was 1.45%. Compound CN(C)C(=O)C1CCc2nnc(CNC(=O)c3ccc(Cl)cc3Cl)n21 (centres undefined) has a cytotoxicity at 70.5 h of 2.11%. For CC(C)(C)CN1CCCC12Cc1ccccc1CNC2=O (centres undefined), the cytotoxicity at 70.5 h was -7.71%. Compound CC(C)CCN1CCCC12Cc1ccccc1CNC2=O (centres undefined) has a cytotoxicity at 70.5 h of -7.7%. Work on CS(=O)(=O)N1Cc2ccccc2CC2(CCN(Cc3ccncc3)C2)C1 (centres undefined) yielded a cytotoxicity at 70.5 h of -9.23%. With CC(=O)N1Cc2ccccc2CC2(CCCCN2C)C1 (centres undefined) the cytotoxicity at 70.5 h was 21.1%. CN1CCCCC12Cc1ccccc1CN(C(=O)C1CCCC1)C2 (centres undefined) showed a cytotoxicity at 70.5 h of -6.1%. In the case of CS(=O)(=O)N1CC2(CCN(C3CCCCC3)C2)Cc2ccccc21 (centres undefined), the cytotoxicity at 70.5 h is reported as 0.278%. With CS(=O)(=O)N1CC2(CCN(CC3CCCCC3)CC2)Cc2ccccc21 the cytotoxicity at 70.5 h was 29.9%. Work on CS(=O)(=O)N1CC2(CCN(CC3CCCCC3)C2)Cc2ccccc21 (centres undefined) yielded a cytotoxicity at 70.5 h of -3.19%. O=C1Nc2ccccc2CN(CC2CCCC2)C12CCNC2 (centres undefined) gave a cytotoxicity at 70.5 h of -2.12%. Compound O=C(NC1CC1)c1cc(C2CC2)nc2onc(C3CCNCC3)c12 has a cytotoxicity at 70.5 h of -4.47%. For COCCNC(=O)c1cc(C2CC2)nc2onc(C3CCNC3)c12 (centres undefined), the cytotoxicity at 70.5 h was -7.31%. Work on Cc1cc(C(=O)NCC(F)(F)F)c2c(C3CCNCC3)noc2n1 yielded a cytotoxicity at 70.5 h of 25.3%. Compound O=C(c1ccc(Cl)cc1)N1CCC(N2CCOC2=O)CC1 has a cytotoxicity at 70.5 h of -7.62%. With O=C(c1ccc(Cl)cc1)N1CCC(N2CCNC2=O)CC1 the cytotoxicity at 70.5 h was -3.41%. O=C(c1cscn1)N1CCC2(COc3ncccc3S(=O)(=O)N2)C1 (centres undefined) gave a cytotoxicity at 70.5 h of -3.8%. In the case of CC(C)(C)C(=O)N1CCC2(CNS(=O)(=O)c3cnccc3O2)C1 (centres undefined), the cytotoxicity at 70.5 h is reported as 41.2%. For CC(C)NC(=O)N1CCCCC1c1nnc2n1CCNC2 (centres undefined), the cytotoxicity at 70.5 h was 20.4%. With O=S1(=O)NCC2(CCCN(Cc3cccnc3)C2)Oc2ncccc21 (centres undefined) the cytotoxicity at 70.5 h was 26.5%. Work on CN1CCC2(CC1)Cc1ccccc1CN(C(=O)CN)C2 yielded a cytotoxicity at 70.5 h of 24.5%. Compound O=C1Nc2ccccc2CC12CCCN2Cc1ccc(C(F)(F)F)cc1 (centres undefined) has a cytotoxicity at 70.5 h of 6.34%. In the case of CCN(CC(=O)NC)C(=O)c1csc(Cc2ccccc2)n1, the cytotoxicity at 70.5 h is reported as -2.3%. O=C(NC1CCN(Cc2ccc(F)cc2)CC1)c1ccc2c(c1)CCC2 gave a cytotoxicity at 70.5 h of -6.88%. Cc1cc(C(=O)N2CCNC(=O)CC2)c(C)n1CC(F)(F)F gave a cytotoxicity at 70.5 h of 23.5%. In the case of CC(C)(C)c1noc(CCCC(=O)N2CCNC(=O)CC2)n1, the cytotoxicity at 70.5 h is reported as -6.5%. Cc1noc(CCCC(=O)N2CCNC(=O)C2)n1 gave a cytotoxicity at 70.5 h of -9.21%. Compound CC(C)C1C(=O)NCCN1C(=O)CCCc1nc(C(C)(C)C)no1 (centres undefined) has a cytotoxicity at 70.5 h of -3.75%. Work on CCOCCC(=O)NC(c1noc(C)n1)c1ccccc1F (centres undefined) yielded a cytotoxicity at 70.5 h of -7.31%. With Cc1nc(C(NS(=O)(=O)N(C)C)c2ccccc2F)no1 (centres undefined) the cytotoxicity at 70.5 h was -2.92%. Compound COC(=O)C1CN(Cc2ccn(-c3ccc(F)cc3)n2)C[C@@H](C)O1 (some centres undefined) has a cytotoxicity at 70.5 h of 21.2%. With NC(=O)NC1CCN(Cc2ccc(Br)c(F)c2)CC1 the cytotoxicity at 70.5 h was -5.43%. Compound CN(Cc1cc(Br)cn1C)C(=O)c1cccnc1 has a cytotoxicity at 70.5 h of -8.21%. N#Cc1ccc(SCCC(=O)O)cc1 showed a cytotoxicity at 70.5 h of -7.41%. For CSCCC(=O)N1CCN(CC(C)(C)O)CC1, the cytotoxicity at 70.5 h was -13.7%. For CCCNC(=O)c1cnc2n1CCCC2, the cytotoxicity at 70.5 h was -9.22%. Work on COC(=O)CC1CN(Cc2ccn(-c3ccc(F)cc3)n2)CCO1 (centres undefined) yielded a cytotoxicity at 70.5 h of -8.65%. Work on CCc1ccc(C(=O)NC2CCN(c3ccn(C)n3)C2)o1 (centres undefined) yielded a cytotoxicity at 70.5 h of -2.13%. For CCC(O)CN1CCN(C(=O)CCSC)CC1 (centres undefined), the cytotoxicity at 70.5 h was 0.756%. With CSCC(=O)N1CCN(CC(O)C(C)(C)C)CC1 (centres undefined) the cytotoxicity at 70.5 h was -10.6%. CCC1CN(CCCO)c2ccccc2O1 (centres undefined) showed a cytotoxicity at 70.5 h of 0.738%. Compound COC1CCCN(C(=O)NCc2ccc(C(=O)N(C)C(C)C)cc2)C1 (centres undefined) has a cytotoxicity at 70.5 h of 25.2%. Compound CN(CCc1cccs1)C(=O)Nc1ccc2c(c1)C(=O)N(C)CC2 has a cytotoxicity at 70.5 h of -7.01%. For COCCN(Cc1ccccn1)C(=O)Nc1cccnc1N1CCCC1, the cytotoxicity at 70.5 h was -12.3%. O=C(COc1ccc(Br)cc1F)Nc1cn[nH]c1 gave a cytotoxicity at 70.5 h of 15.8%. For CCCNC(=O)C(C)NC(=O)Nc1ccccc1SC(F)F (centres undefined), the cytotoxicity at 70.5 h was -13%. With CCOC1CCN(C(=O)NCc2ccc(CN3CCOCC3)cc2)CC1 the cytotoxicity at 70.5 h was -9.89%. CN(CCc1ccccn1)C(=O)Nc1cccnc1N1CCCC1 gave a cytotoxicity at 70.5 h of 11.3%. Compound Cc1cc(N(C)C)nc(N2CCCC2c2cccnc2)n1 (centres undefined) has a cytotoxicity at 70.5 h of -1.47%. For Cc1nn(C)c(C)c1C(=O)N1CCN(C(=O)CC2CCCCC2)CC1, the cytotoxicity at 70.5 h was 11.5%. For Cc1nsc(N2CCN(Cc3cccc(F)c3)CC2)n1, the cytotoxicity at 70.5 h was 0.252%. Compound Cc1cccc(CN(Cc2ccccn2)Cc2ncc(C(C)(C)C)o2)c1 has a cytotoxicity at 70.5 h of -11.5%. Work on O=S(=O)(N1CCC(n2cccc2)CC1)N1CCCC1c1ccco1 (centres undefined) yielded a cytotoxicity at 70.5 h of -10.3%. Work on O=C(NCC(O)c1ccc(Cl)s1)c1ccoc1 (centres undefined) yielded a cytotoxicity at 70.5 h of -8.52%. For COCCN(Cc1ccc(C)o1)C(=O)Nc1nnc2ccccn12, the cytotoxicity at 70.5 h was -16.7%. In the case of O=c1[nH]c(C2CCOC2)nc2ccc(Cl)cc12 (centres undefined), the cytotoxicity at 70.5 h is reported as 7.32%. CN1CCc2ccc(NCc3cccs3)cc2C1=O showed a cytotoxicity at 70.5 h of -15.5%. Work on COCc1nnc(-c2cccc(C(=O)N(C(C)C)C3CCC3)c2)o1 yielded a cytotoxicity at 70.5 h of -12.7%.
